According to patent publication US20090247559A1 (Exelixis, Inc., priority 2007, published 2009):
Structures can show the parent of a compound that is named as a salt. Where two headings read alike, the source gives them in different places.

How the values were obtained:
CK2 = CK2 (Homo sapiens, UniProt P68400); assay: CK2 inhibition, biochemical chemiluminescence holoenzyme assay (Kinase Glo, IC50 determination); conditions: Table 1 activity class; symbol given only if active; read-out: CK2 IC50 (Activity C)
Outline: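 Holoenzyme CK2 assay; compounds pre-incubated with substrate and enzyme, then reacted 150 min at 24-27° C. Remaining ATP measured as luminescence with Kinase Glo, and IC50 derived from the signal.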

CDC7 = CDC7 (Homo sapiens, UniProt O00311); assay: CDC7 inhibition, biochemical chemiluminescence assay (Kinase Glo, IC50 determination)
Outline: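 CDC7 enzyme preincubated with compound 10 min at ambient temperature, then ATP mix in Tris Base added; reaction 90 min at 24-27 °C. Remaining ATP quantified by Kinase Glo luminescence to give IC50.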

[1] = molecular target: PIM (PIM-1, PIM-2, and/or PIM-3); assay: PIM-1, PIM-2 and PIM-3 inhibition, biochemical chemiluminescence assays (Kinase Glo, IC50 determination); conditions: Table 1 activity class; PIM refers to PIM-1, PIM-2, and/or PIM-3; read-out: PIM IC50 (Activity B)
[2] = Table 1 activity class, symbol given only if active, read-out: CDC7 IC50 (Activity A)
[3] = compounds in Table 1, read-out: CDC7 IC50 value

CK2, sequence (P68400 whole entry): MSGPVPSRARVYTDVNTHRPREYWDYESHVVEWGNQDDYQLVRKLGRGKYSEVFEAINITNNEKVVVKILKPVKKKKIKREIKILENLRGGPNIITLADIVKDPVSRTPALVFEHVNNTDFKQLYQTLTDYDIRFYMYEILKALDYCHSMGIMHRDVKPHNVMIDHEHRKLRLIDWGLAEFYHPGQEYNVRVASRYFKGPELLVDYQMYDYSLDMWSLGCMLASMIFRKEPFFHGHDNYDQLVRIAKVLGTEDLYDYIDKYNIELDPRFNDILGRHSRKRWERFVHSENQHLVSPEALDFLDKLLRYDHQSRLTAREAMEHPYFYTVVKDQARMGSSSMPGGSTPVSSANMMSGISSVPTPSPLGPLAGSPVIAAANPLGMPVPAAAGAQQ
CK2, sequence (P67870 whole entry partner): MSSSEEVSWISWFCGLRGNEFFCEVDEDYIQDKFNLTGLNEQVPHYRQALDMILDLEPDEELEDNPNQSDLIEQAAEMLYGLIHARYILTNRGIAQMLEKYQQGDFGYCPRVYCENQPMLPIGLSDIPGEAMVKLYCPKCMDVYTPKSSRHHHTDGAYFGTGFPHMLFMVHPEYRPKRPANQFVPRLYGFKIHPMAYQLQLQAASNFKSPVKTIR
CDC7, sequence (O00311 whole entry): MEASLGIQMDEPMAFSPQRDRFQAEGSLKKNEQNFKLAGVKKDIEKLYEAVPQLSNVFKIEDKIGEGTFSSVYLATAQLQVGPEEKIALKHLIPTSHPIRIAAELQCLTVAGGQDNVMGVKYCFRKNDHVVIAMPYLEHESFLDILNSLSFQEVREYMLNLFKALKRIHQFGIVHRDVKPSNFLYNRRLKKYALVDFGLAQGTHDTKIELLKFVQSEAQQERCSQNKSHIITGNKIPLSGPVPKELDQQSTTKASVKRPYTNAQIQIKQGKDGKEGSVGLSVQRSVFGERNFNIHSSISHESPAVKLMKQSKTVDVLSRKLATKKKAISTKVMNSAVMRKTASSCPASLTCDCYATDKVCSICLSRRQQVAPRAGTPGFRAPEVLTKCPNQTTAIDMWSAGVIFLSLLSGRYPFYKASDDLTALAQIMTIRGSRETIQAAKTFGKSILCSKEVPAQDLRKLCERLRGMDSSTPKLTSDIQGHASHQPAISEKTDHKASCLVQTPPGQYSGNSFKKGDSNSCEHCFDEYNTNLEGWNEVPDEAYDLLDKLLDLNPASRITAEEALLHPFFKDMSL
CDC7, sequence (Q9UBU7 whole entry partner): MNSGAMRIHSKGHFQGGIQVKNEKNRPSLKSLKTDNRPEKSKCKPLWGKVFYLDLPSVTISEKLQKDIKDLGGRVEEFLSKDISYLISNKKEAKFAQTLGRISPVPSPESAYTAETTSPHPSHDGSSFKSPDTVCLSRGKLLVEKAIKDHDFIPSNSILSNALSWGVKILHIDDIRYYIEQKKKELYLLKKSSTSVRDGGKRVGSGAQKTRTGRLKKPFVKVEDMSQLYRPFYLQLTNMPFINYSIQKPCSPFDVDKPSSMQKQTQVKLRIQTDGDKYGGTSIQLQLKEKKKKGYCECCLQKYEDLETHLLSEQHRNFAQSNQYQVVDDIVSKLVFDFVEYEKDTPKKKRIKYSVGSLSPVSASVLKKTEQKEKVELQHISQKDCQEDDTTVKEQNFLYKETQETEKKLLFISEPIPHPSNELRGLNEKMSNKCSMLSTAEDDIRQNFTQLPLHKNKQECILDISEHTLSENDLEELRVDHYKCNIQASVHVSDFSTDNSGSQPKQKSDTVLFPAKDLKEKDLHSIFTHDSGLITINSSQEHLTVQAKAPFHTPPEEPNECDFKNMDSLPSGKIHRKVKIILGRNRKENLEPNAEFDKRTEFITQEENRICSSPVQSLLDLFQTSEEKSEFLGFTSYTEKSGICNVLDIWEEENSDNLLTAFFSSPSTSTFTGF

Compound | IC50 (CK2) [µM] | IC50 (CDC7; [2]) [µM] | IC50 [1] [µM] | IC50 (CDC7; [3]) [µM]
O=c1[nH]c(CC2CCCNC2)nc2c1oc1ccc(Br)cc12 (stereo not drawn) [Compound 194, 8-bromo-2-(piperidin-3-ylmethyl)[1]benzofuro[3,2-d]pyrimidin-4(3H)-one] | < 10 | < 10 | < 10 | 
CC[C@@H](C)NCc1nc2c(oc3ccc(Br)cc32)c(=O)[nH]1 [Compound 519, 8-bromo-2-({[(1R)-1-methylpropyl]amino}methyl)[1]benzofuro[3,2-d]pyrimidin-4(3H)-one] | < 10 | < 10 | < 10 | < 0.1
O=c1[nH]c([C@@H]2CCCN2)nc2c1oc1ccc(Cl)cc12 [Compound 507, 8-Chloro-2-[(2S)-pyrrolidin-2-yl][1]benzofuro[3,2-d]pyrimidin-4(3H)-one Hydrochloride] | < 10 | < 10 | < 10 | < 0.1
O=c1[nH]c(-c2ccc(CNCCN3CCCCC3)cc2Cl)nc2c1oc1ccc(Br)cc12 [Compound 385, 8-bromo-2-(2-chloro-4-{[(2-piperidin-1-ylethyl)amino]methyl}phenyl)[1]benzofuro[3,2-d]pyrimidin-4(3H)-one] | < 10 | < 10 | < 10 | 
O=C(O)C1CN(Cc2nc3c(oc4ccc(Br)cc43)c(=O)[nH]2)C1 [Compound 370, 1-[(8-bromo-4-oxo-3,4-dihydro[1]benzofuro[3,2-d]pyrimidin-2-yl)methyl]azetidine-3-carboxylic acid] | < 10 | < 10 | < 10 | 
O=c1[nH]c(CN2CC[C@H](O)C2)nc2c1oc1ccc(NCCc3cccc(Cl)c3)cc12 [Compound 444, 8-{[2-(3-chlorophenyl)ethyl]amino}-2-{[(3S)-3-hydroxypyrrolidin-1-yl]methyl}[1]benzofuro[3,2-d]pyrimidin-4(3H)-one] | < 10 | < 10 | < 10 | 
NCc1ccc(-c2nc3c(oc4ccc(Br)cc43)c(=O)[nH]2)cc1 [Compound 349, 2-[4-(Aminomethyl)phenyl]-8-bromo[1]benzofuro[3,2-d]pyrimidin-4(3H)-one] | < 10 | < 10 | < 10 | 
O=c1[nH]c(CNC2CCCCC2)nc2c1oc1ccc(Br)cc12 [Compound 504, 8-bromo-2-[(cyclohexylamino)methyl][1]benzofuro[3,2-d]pyrimidin-4(3H)-one] | < 10 | < 10 | < 10 | 
CC(C)(C)OC(=O)N1CCC(NCc2ccc(-c3nc4c(oc5ccc(Br)cc54)c(=O)[nH]3)c(Cl)c2)CC1 [Compound 386, 1,1-dimethylethyl 4-({[4-(8-bromo-4-oxo-3,4-dihydro[1]benzofuro[3,2-d]pyrimidin-2-yl)-3-chlorophenyl]methyl}amino)piperidine-1-carboxylate] | < 10 | < 10 | < 10 | 

Continued, values first:

IC50 (CK2) [µM] | IC50 (CDC7; [2]) [µM] | IC50 [1] [µM] | IC50 (CDC7; [3]) [µM] | Compound
< 10 | < 10 | < 10 |  | O=c1[nH]c(CN2CCC3(CCNCC3)CC2)nc2c1oc1ccc(Br)cc12 [Compound 311, 8-bromo-2-(3,9-diazaspiro[5.5]undec-3-ylmethyl)[1]benzofuro[3,2-d]pyrimidin-4(3H)-one]
< 10 | < 10 | < 10 |  | COc1ccc2oc3c(=O)[nH]c(CN4CC[C@H](O)C4)nc3c2c1 [Compound 451, 2-{[(3S)-3-hydroxypyrrolidin-1-yl]methyl}-8-(methyloxy)[1]benzofuro[3,2-d]pyrimidin-4(3H)-one]
< 10 | < 10 | < 10 | < 0.1 | CN(C)Cc1nc2c(oc3ccc(Br)cc32)c(=O)[nH]1 [Compound 517, 8-bromo-2-[(dimethylamino)methyl][1]benzofuro[3,2-d]pyrimidin-4(3H)-one]
< 10 | < 10 | < 10 |  | O=c1[nH]c(CN2CCC(NCC3CCNCC3)C2)nc2c1oc1ccc(Br)cc12 (stereo not drawn) [Compound 110, 8-bromo-2-({3-[(piperidin-4-ylmethyl)amino]pyrrolidin-1-yl}methyl)[1]benzofuro[3,2-d]pyrimidin-4(3H)-one]
< 10 | < 10 | < 10 |  | O=C(NCc1ccccc1Cl)C1CCN(Cc2nc3c(oc4ccc(Br)cc43)c(=O)[nH]2)C1 (stereo not drawn) [Compound 224, 1-[(8-bromo-4-oxo-3,4-dihydro[1]benzofuro[3,2-d]pyrimidin-2-yl)methyl]-N-[(2-chlorophenyl)methyl]pyrrolidine-3-carboxamide]
< 10 | < 10 | < 10 |  | O=c1[nH]c(-c2cnc3cc(C4CCNCC4)nn3c2)nc2c1oc1ccc(Br)cc12 [Compound 377, 8-Bromo-2-(2-piperidin-4-ylpyrazolo[1,5-a]pyrimidin-6-yl)[1]benzofuro[3,2-d]pyrimidin-4(3H)-one]
< 10 | < 10 | < 10 |  | CC(C)C(c1nc2c(oc3ccc(Br)cc32)c(=O)[nH]1)N1CCCC1 (stereo not drawn) [Compound 153, 8-Bromo-2-(2-methyl-1-pyrrolidin-1-ylpropyl)[1]benzofuro[3,2-d]pyrimidin-4(3H)-one]
< 10 | < 10 | < 10 |  | COc1ccc2oc3c(=O)[nH]c(-c4ccc([N+](=O)[O-])cc4Cl)nc3c2c1 [Compound 124, 2-(2-chloro-4-nitrophenyl)-8-(methyloxy)[1]benzofuro[3,2-d]pyrimidin-4(3H)-one]
< 10 | < 10 | < 10 |  | Cc1cc(C(=O)Nc2ccc(-c3nc4c(oc5ccc(Br)cc54)c(=O)[nH]3)c(Cl)c2)no1 [Compound 362, N-[4-(8-bromo-4-oxo-3,4-dihydro[1]benzofuro[3,2-d]pyrimidin-2-yl)-3-chlorophenyl]-5-methylisoxazole-3-carboxamide]
< 10 | < 10 | < 10 |  | O=C(Nc1ccc(-c2nc3c(oc4ccc(Br)cc43)c(=O)[nH]2)c(Cl)c1)C1CCNC1 (stereo not drawn) [Compound 178, N-[4-(8-bromo-4-oxo-3,4-dihydro[1]benzofuro[3,2-d]pyrimidin-2-yl)-3-chlorophenyl]pyrrolidine-3-carboxamide]
